We go through 23 molecules from ChEMBL document CHEMBL5291721, “A preclinical secondary pharmacology resource illuminates target-adverse drug reaction associations of marketed drugs” (Nat Commun, 2023).

Some results are limits rather than exact numbers.

In assay [1] the target is T1, Muscarinic acetylcholine receptor M1 (Homo sapiens, UniProt P11229).
T1 sequence (P11229 whole entry): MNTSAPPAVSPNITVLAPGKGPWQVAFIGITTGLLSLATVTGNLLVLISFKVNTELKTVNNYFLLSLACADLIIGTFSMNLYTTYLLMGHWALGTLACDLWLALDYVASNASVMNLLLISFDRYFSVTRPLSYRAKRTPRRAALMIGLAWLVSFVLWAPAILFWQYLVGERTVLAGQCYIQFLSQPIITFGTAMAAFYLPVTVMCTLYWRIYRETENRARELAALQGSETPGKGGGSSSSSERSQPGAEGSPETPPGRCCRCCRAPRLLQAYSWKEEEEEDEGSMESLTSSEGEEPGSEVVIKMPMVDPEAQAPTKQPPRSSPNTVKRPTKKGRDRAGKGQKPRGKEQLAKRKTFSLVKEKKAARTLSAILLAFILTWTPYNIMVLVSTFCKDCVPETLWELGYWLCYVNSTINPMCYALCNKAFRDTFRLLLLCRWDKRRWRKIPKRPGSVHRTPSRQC

Assay [2] addresses Estrogen receptor beta (Homo sapiens, UniProt Q92731).
For assay [3], the target named is T2, Androgen receptor (Rattus norvegicus, UniProt P15207).
T2 sequence (P15207 whole entry): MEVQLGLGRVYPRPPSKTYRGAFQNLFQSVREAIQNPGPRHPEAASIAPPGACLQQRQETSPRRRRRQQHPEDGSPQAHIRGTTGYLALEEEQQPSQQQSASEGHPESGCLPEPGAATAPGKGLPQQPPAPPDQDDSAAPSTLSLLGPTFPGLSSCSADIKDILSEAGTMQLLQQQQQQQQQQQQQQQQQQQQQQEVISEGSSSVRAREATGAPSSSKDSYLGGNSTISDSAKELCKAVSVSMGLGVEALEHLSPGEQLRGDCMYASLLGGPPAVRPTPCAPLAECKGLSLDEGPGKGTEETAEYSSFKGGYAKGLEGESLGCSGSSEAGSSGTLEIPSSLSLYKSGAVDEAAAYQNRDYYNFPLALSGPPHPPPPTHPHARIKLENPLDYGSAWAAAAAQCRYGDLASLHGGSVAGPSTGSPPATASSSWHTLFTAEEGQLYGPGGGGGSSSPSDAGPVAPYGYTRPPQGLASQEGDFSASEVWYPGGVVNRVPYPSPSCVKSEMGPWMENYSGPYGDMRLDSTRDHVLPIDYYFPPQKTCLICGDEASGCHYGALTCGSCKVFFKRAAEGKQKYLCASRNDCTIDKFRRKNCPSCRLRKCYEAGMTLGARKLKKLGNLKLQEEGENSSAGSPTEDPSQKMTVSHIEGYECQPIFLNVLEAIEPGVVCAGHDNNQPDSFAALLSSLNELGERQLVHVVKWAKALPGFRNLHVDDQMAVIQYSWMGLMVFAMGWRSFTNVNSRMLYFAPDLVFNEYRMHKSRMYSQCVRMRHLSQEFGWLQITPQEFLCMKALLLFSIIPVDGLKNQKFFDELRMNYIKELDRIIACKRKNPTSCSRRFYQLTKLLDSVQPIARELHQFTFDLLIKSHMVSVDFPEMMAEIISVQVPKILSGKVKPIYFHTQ

The target in assay [4] is 5-hydroxytryptamine receptor 2A (Homo sapiens, UniProt P28223).
5-hydroxytryptamine receptor 2A, sequence (P28223 whole entry): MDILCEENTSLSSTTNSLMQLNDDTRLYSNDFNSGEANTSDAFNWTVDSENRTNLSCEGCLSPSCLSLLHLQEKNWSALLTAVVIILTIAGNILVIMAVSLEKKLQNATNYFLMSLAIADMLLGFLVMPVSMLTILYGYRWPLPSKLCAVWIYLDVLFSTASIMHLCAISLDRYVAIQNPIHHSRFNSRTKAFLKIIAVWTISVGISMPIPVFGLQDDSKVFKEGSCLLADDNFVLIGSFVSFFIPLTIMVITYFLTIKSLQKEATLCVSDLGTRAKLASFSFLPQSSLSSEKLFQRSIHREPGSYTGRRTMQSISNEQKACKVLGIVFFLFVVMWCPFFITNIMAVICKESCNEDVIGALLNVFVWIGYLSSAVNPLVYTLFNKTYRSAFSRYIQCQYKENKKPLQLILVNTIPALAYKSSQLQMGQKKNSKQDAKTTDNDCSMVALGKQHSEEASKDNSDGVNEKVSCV
The target of assay [5] is Cannabinoid receptor 1 (Homo sapiens, UniProt P21554). The assay is classed as functional.
Cannabinoid receptor 1, sequence (P21554 whole entry): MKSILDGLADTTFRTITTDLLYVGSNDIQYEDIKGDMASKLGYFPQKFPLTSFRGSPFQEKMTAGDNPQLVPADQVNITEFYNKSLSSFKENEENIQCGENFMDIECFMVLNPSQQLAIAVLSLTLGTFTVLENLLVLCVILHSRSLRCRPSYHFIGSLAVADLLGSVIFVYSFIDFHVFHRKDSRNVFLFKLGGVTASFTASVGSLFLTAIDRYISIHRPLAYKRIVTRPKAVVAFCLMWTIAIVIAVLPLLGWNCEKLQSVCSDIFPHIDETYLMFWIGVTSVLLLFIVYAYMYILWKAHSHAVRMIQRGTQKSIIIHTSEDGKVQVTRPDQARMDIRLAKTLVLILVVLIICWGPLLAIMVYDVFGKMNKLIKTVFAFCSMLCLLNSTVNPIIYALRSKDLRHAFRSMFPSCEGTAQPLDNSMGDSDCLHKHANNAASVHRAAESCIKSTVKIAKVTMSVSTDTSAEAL
Assay [6] has as its target T3, Muscarinic acetylcholine receptor M4 (Homo sapiens, UniProt P08173).
T3 sequence (P08173 whole entry): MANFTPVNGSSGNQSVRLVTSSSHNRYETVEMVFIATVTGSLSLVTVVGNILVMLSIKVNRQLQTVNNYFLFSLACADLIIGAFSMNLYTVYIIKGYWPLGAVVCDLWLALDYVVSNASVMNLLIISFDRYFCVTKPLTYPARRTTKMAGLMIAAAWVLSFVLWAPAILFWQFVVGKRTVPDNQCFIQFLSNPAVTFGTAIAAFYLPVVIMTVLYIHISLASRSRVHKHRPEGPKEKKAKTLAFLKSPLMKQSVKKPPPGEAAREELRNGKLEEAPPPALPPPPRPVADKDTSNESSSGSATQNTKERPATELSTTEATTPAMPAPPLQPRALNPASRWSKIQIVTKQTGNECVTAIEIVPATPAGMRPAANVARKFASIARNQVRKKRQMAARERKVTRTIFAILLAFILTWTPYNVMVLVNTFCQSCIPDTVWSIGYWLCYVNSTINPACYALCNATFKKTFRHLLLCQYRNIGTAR

Assay [7] deals with T2, Androgen receptor. It is filed as functional.
The target in assay [8] is T2, Androgen receptor. The assay is classed as functional. This is another data set of the same source.
The target in assay [9] is Hydroxycarboxylic acid receptor 2 (Homo sapiens, UniProt Q8TDS4).
Hydroxycarboxylic acid receptor 2, sequence (Q8TDS4 whole entry): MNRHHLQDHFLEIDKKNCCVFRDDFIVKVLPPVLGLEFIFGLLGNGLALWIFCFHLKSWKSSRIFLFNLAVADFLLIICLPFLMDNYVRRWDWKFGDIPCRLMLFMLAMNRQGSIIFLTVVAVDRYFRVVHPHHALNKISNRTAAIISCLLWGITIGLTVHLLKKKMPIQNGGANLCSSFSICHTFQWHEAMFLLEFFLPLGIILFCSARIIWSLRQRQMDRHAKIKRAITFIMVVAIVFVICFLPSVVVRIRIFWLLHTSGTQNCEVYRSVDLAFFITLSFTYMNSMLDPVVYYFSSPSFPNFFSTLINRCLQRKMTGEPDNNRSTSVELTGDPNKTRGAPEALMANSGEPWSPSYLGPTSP
Assay [10] addresses T4, Gamma-aminobutyric acid receptor subunit alpha-1/alpha-2/beta-2/gamma-2 (Homo sapiens, UniProt P14867+P18507+P47869+P47870). It is filed as functional, cell-based.
Assay [11] concerns the target T4, Gamma-aminobutyric acid receptor subunit alpha-1/alpha-2/beta-2/gamma-2. It is filed as functional, cell-based. This is another data set of the same source.
For assay [12], the target named is T5, Alpha-2A adrenergic receptor (Homo sapiens, UniProt P08913).
T5 sequence (P08913 whole entry): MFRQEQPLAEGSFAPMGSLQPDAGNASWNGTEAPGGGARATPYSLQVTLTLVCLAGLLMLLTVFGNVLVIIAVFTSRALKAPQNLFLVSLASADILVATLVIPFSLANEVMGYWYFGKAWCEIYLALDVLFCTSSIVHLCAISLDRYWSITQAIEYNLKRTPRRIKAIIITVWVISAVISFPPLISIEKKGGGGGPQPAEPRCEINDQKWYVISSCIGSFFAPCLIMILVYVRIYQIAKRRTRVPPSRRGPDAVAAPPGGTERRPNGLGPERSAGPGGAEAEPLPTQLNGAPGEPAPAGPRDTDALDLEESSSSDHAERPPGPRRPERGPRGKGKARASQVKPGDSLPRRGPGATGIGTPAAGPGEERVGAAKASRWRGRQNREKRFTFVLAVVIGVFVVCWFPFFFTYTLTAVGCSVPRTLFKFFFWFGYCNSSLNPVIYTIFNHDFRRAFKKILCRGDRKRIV
Further: assay procedure not described here.

T4 sequence (P14867 whole entry): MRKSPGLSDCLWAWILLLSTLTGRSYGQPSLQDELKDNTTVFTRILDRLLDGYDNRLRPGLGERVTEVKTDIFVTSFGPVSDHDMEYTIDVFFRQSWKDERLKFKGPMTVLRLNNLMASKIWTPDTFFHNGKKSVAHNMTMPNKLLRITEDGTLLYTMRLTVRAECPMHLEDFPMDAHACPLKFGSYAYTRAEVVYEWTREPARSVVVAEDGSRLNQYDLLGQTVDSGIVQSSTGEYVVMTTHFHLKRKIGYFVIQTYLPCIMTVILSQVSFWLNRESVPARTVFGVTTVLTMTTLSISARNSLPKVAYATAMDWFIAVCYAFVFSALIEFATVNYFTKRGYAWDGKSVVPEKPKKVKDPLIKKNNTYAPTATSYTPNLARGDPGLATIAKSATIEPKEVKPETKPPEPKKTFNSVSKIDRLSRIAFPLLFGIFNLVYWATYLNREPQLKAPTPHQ
T4 sequence (P47870 whole entry): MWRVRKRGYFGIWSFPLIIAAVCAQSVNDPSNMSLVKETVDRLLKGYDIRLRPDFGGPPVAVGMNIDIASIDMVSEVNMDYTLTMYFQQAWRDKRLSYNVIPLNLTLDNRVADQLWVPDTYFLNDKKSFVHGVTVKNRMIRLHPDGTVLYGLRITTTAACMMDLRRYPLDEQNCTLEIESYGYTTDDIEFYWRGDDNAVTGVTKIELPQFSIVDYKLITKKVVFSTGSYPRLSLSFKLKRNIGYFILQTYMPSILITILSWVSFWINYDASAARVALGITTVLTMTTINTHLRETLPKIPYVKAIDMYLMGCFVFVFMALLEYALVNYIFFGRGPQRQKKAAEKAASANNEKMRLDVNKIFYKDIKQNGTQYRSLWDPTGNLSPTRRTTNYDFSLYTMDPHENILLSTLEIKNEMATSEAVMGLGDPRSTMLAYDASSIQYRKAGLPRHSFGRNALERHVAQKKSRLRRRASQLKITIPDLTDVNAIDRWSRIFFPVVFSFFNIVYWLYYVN
T4 sequence (P18507 whole entry): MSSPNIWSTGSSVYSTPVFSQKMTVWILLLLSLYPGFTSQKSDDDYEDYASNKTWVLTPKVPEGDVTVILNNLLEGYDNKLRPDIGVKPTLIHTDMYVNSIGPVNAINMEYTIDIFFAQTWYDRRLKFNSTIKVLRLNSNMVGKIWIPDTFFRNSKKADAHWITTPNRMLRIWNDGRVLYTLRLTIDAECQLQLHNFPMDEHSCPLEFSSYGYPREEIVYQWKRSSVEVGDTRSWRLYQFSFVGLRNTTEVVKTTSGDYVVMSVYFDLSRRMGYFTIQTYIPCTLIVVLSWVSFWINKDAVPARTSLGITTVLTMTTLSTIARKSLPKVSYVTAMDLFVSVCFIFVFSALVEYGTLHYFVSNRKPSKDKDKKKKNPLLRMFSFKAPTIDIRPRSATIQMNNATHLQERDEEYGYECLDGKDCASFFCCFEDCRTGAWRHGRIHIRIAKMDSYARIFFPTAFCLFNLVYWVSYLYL
T4 sequence (P47869 whole entry): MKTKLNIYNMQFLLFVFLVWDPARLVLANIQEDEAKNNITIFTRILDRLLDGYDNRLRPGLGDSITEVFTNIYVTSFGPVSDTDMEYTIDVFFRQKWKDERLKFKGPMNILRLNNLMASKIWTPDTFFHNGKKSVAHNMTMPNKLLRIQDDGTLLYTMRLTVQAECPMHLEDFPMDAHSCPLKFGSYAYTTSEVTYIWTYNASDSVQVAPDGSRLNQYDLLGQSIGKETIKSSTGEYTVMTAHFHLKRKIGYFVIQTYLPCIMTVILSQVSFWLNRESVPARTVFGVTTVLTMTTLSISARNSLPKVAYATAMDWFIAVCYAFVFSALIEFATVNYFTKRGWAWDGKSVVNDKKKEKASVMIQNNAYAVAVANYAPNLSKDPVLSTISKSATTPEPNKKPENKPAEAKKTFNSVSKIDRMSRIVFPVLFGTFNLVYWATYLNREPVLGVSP
Estrogen receptor beta, sequence (Q92731 whole entry): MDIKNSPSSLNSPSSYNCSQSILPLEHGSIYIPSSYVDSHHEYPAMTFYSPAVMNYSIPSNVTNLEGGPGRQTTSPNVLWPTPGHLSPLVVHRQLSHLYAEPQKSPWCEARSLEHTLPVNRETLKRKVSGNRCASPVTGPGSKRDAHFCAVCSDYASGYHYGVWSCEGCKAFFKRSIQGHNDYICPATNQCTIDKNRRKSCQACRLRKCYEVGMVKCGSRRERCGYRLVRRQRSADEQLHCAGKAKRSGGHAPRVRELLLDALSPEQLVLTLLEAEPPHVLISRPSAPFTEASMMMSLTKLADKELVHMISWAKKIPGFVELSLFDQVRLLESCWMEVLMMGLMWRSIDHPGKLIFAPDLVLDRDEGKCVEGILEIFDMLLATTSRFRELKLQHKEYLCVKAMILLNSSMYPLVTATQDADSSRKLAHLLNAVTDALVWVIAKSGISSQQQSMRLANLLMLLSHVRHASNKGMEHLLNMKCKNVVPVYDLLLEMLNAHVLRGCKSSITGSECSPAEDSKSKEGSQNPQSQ

Take `CCCCCCCC(=O)N[C@H](CN1CCCC1)[C@H](O)c1ccc2c(c1)OCCO2`: the AC50 (as a rule, the concentration giving half of the maximal activity seen) in [1] is greater than 30 µM.
For the molecule `C[C@]1(COc2ccc(N3CCC(Oc4ccc(OC(F)(F)F)cc4)CC3)cc2)Cn2cc([N+](=O)[O-])nc2O1`, the concentration at half-maximal activity (AC50) in [2] is greater than 30 µM; in assay [3] it was greater than 30 µM; in [4] it was greater than 10 µM.
Regarding `C[C@]12CC[C@H](O)CC1=CC[C@@H]1[C@@H]2CC[C@]2(C)C(c3cccnc3)=CC[C@@H]12` [ABIRATERONE], the results for the AC50 in assay [3] and in [4] were greater than 30 µM and greater than 10 µM, respectively.
As to `CC(=O)OCC[N+](C)(C)C` [ACETYLCHOLINE], the AC50 in assay [2] is greater than 30 µM; in assay [4] it was greater than 10 µM.
In the case of `O=C(Nc1nc(-c2cc(Cl)cs2)c(N2CCN(C3CCCCC3)CC2)s1)c1cnc(N2CCC(C(=O)O)CC2)c(Cl)c1` [AVATROMBOPAG], the AC50 in assay [5] is greater than 10 µM; in [1] it was greater than 30 µM; in assay [4], greater than 10 µM; in [6] it was greater than 10 µM.
As for `CN(C)C(=O)Oc1cc(OC(=O)N(C)C)cc(C(O)CNC(C)(C)C)c1` (configuration not stated) [BAMBUTEROL], the AC50 in assay [7] and in assay [8] was greater than 30 µM each time.
Turning to `C[C@H]1C[C@H]2[C@@H]3CCC4=CC(=O)C=C[C@]4(C)[C@@]3(Cl)[C@@H](O)C[C@]2(C)[C@@]1(O)C(=O)CO` [BECLOMETHASONE], in assay [9], the AC50 is greater than 10 µM.
`CO[C@@]1(NC(=O)CSCC#N)C(=O)N2C(C(=O)O)=C(CSc3nnnn3C)CS[C@@H]21` [CEFMETAZOLE] registered an AC50 in assay [10] greater than 30 µM.
For `CO/N=C(\C(=O)N[C@@H]1C(=O)N2C(C(=O)[O-])=C(C[n+]3cccc4c3CCC4)CS[C@H]12)c1csc(N)n1` [CEFPIROME], the AC50 in [11] and in assay [10] was greater than 30 µM in each case.
For `Oc1c(I)cc(Cl)c2cccnc12` [CLIOQUINOL], the AC50 in [11], in assay [10] and in assay [1] was greater than 30 µM throughout.
On to `COc1ccc2c(c1)[C@]13CCCC[C@@H]1[C@H](C2)N(C)CC3` [DEXTROMETHORPHAN], for which, in assay [2], the AC50 was greater than 30 µM.
In assay [3], `O=c1oc2ccccc2c(O)c1Cc1c(O)c2ccccc2oc1=O` [DICUMAROL] came in with an AC50 greater than 10 µM.
Regarding `CCn1cc(C(=O)O)c(=O)c2cc(F)c(N3CCNCC3)nc21` [ENOXACIN], the AC50 in assay [5] was greater than 10 µM; in assay [2], greater than 30 µM; in assay [6], greater than 10 µM.
On to `O=C(O)CSCC(=O)NC1CCSC1=O` (configuration not stated) [ERDOSTEINE], for which the AC50 in assay [7] and in assay [8] was greater than 30 µM throughout.
Turning to `CCC(=O)O[C@@H]1CC(=O)O[C@H](C)C/C=C/C=C/[C@H](OC(C)=O)[C@H](C)C[C@H](CC=O)[C@H](O[C@@H]2O[C@H](C)[C@@H](O[C@H]3C[C@@](C)(OC(C)=O)[C@@H](OC(=O)CC)[C@H](C)O3)[C@H](N(C)C)[C@H]2O)[C@H]1OC` [MIOCAMYCIN], in assay [1], the AC50 was greater than 30 µM.
`N=C(N)c1ccc2cc(OC(=O)c3ccc(N=C(N)N)cc3)ccc2c1` [NAFAMOSTAT] registered an AC50 in assay [8] of 12 µM. This lies in the double-digit micromolar range.
`c1ccc2c(CC3=NCCN3)cccc2c1` [NAPHAZOLINE]: half-maximal activity in assay [12] (AC50) was put at 0.0087 µM.
`C1CNCCN1` [PIPERAZINE]: the AC50 in [1] is greater than 30 µM.
On to `COCCCOc1ccnc(C[S+]([O-])c2nc3ccccc3[nH]2)c1C` (configuration not stated) [RABEPRAZOLE], for which the values for the AC50 in assay [2] and in assay [9] were greater than 30 µM and greater than 10 µM, respectively.
As to `CC(C)=CCOc1ccc(/C=C/C(=O)c2ccc(OCC=C(C)C)cc2OCC(=O)O)cc1` [SOFALCONE], the figures for the AC50 in assay [7] and in assay [8] were 6.1 µM and greater than 30 µM, respectively.
Regarding `O=C(CCCN1CCC2(CC1)C(=O)NCN2c1ccccc1)c1ccc(F)cc1` [SPIPERONE], the results for the half-maximal activity concentration (AC50) in assay [11], in assay [12] and in [10] were greater than 30 µM, 17 µM and greater than 30 µM, respectively.
In turn, `CN(C)c1cc(NC(=O)CNC(C)(C)C)c(O)c2c1C[C@H]1C[C@H]3[C@H](N(C)C)C(O)=C(C(N)=O)C(=O)[C@@]3(O)C(O)=C1C2=O` [TIGECYCLINE] returned an AC50 in assay [3] greater than 30 µM.
`OCCN1CCN(CC/C=C2/c3ccccc3Sc3ccc(Cl)cc32)CC1` [ZUCLOPENTHIXOL]: the AC50 in assay [3] was greater than 10 µM; in [4] it was 0.0046 µM.
